Measured values published in patent publication US7238694B2, “Rifamycin imino derivatives effective against drug-resistant microbes” (Cumbre Pharmaceuticals, Inc., priority 2004, dated 2007).
In brackets after ≈: the same amount, converted by molar mass.

Columns and labels:
Format in all cases: cell-based
[1] = system: Streptococcus pneumoniae ATCC6303; assay: MIC, microbroth dilution (NCCLS); conditions: rifS strain, THY Broth with 1 mg/mL catalase, 5% CO2, 37° C., read-out: MIC
[2] = system: Staphylococcus aureus ATCC29213 rpoB^H418Y; assay: microbe, parasite or virus in culture; conditions: Staphylococcus aureus, ATCC29213; rifR strain; Cation-Adjusted Mueller-Hinton Broth, 37° C.; read-out: MIC
[3] = system: Streptococcus pyogenes ATCC19615; assay: MIC, microbroth dilution (NCCLS); conditions: rifS strain, THY Broth, 37° C., read-out: MIC
[4] = system: Staphylococcus aureus MT1222 gyrA^A116E grlB^S80F; assay: microbe, parasite or virus in culture; conditions: cipR strain, Cation-Adjusted Mueller-Hinton Broth, 37° C., read-out: MIC
[5] = system: Staphylococcus epidermidis ATCC12228; assay: MIC, microbroth dilution (NCCLS); conditions: rifS strain, Cation-Adjusted Mueller-Hinton Broth, 37° C., read-out: MIC
[6] = system: Haemophilus influenzae ATCC10211; assay: MIC, microbroth dilution (NCCLS); conditions: rifS strain, BHI Broth with NAD and hematin, 37° C., read-out: MIC
[7] = system: Staphylococcus aureus ATCC29213; assay: MIC, microbroth dilution (NCCLS); conditions: rifS strain, Cation-Adjusted Mueller-Hinton Broth, 37° C., read-out: MIC

| Compound | MIC [1] | MIC [2] | MIC [3] | MIC [4] | MIC [5] | MIC [6] | MIC [7] |
| --- | --- | --- | --- | --- | --- | --- | --- |
| CO[C@H]1/C=C/O[C@@]2(C)Oc3c(C)c(O)c4c(O)c(c(/C=N/N5CCN(c6nc7c(cc6F)c(=O)c(C(=O)O)cn7-c6ccc(F)cc6F)CC5)c(O)c4c3C2=O)NC(=O)/C(C)=C\C=C\[C@H](C)[C@H](O)[C@@H](C)[C@@H](O)[C@@H](C)[C@H](OC(C)=O)[C@@H]1C [Example 14, 3-[4-[3-Carboxy-1-(2,4-difluoro-phenyl)-6-fluoro-4-oxo-1,4-dihydro-[1,8]naphthyridine-7-yl]-piperazin-1-ylaminomethylenyl]rifamycin SV] | 0.008 to 0.06 µg/mL (≈ 0.0071 to 0.0532 µM) | 0.06 to 16 µg/mL (≈ 0.0532 to 14.2 µM) | 0.008 to 0.03 µg/mL (≈ 0.0071 to 0.0266 µM) | 0.008 to 0.125 µg/mL (≈ 0.0071 to 0.111 µM) | 0.008 to 0.1 µg/mL (≈ 0.0071 to 0.0887 µM) | 0.125 to 4 µg/mL (≈ 0.111 to 3.55 µM) | 0.008 to 1 µg/mL (≈ 0.0071 to 0.887 µM) |
| CCn1cc(C(=O)O)c(=O)c2cc(F)c(N3CCN(/N=C/c4c5c(O)c6c(O)c(C)c7c(c6c4O)C(=O)[C@@](C)(O/C=C/[C@H](OC)[C@@H](C)[C@@H](OC(C)=O)[C@H](C)[C@H](O)[C@H](C)[C@@H](O)[C@@H](C)/C=C/C=C(/C)C(=O)N5)O7)CC3)cc21 [Example 18, 3-[4-(3-Carboxy-1-ethyl-6-fluoro-4-oxo-1,4-dihydroquinolin-7-yl)-piperazin-1-yl-aminomethylenyl]-rifamycin SV] | 0.008 to 0.06 µg/mL (≈ 0.00768 to 0.0576 µM) | 0.06 to 16 µg/mL (≈ 0.0576 to 15.4 µM) | 0.008 to 0.03 µg/mL (≈ 0.00768 to 0.0288 µM) | 0.008 to 0.125 µg/mL (≈ 0.00768 to 0.12 µM) | 0.008 to 0.1 µg/mL (≈ 0.00768 to 0.096 µM) | 0.125 to 4 µg/mL (≈ 0.12 to 3.84 µM) | 0.008 to 1 µg/mL (≈ 0.00768 to 0.96 µM) |
| CCn1cc(C(=O)O)c(=O)c2cc(F)c(N3CCN(/N=C/c4c5c(O)c6c(O)c(C)c7c(c6c4O)C(=O)[C@@](C)(O/C=C/[C@H](OC)[C@@H](C)[C@@H](OC(C)=O)[C@H](C)[C@H](O)[C@H](C)[C@@H](O)[C@@H](C)/C=C/C=C(/C)C(=O)N5)O7)CC3)nc21 [Example 19, 3-[4-(3-Carboxy-1-ethyl-6-fluoro-4-oxo-1,4-dihydro-[1,8]naphthyridine-7-yl)-piperazin-1-yl-aminomethylenyl]-rifamycin SV] | 0.008 to 0.06 µg/mL (≈ 0.00767 to 0.0575 µM) | 0.06 to 16 µg/mL (≈ 0.0575 to 15.3 µM) | 0.008 to 0.03 µg/mL (≈ 0.00767 to 0.0288 µM) | 0.008 to 0.125 µg/mL (≈ 0.00767 to 0.12 µM) | 0.008 to 0.1 µg/mL (≈ 0.00767 to 0.0959 µM) | 0.125 to 4 µg/mL (≈ 0.12 to 3.83 µM) | 0.008 to 1 µg/mL (≈ 0.00767 to 0.959 µM) |
| COc1c(N2CCN(/N=C/c3c4c(O)c5c(O)c(C)c6c(c5c3O)C(=O)[C@@](C)(O/C=C/[C@H](OC)[C@@H](C)[C@@H](OC(C)=O)[C@H](C)[C@H](O)[C@H](C)[C@@H](O)[C@@H](C)/C=C/C=C(/C)C(=O)N4)O6)CC2)c(F)cc2c(=O)c(C(=O)O)cn(C3CC3)c12 [Example 20, 3-[4-(3-Carboxy-1-cyclopropyl-6-fluoro-8-methoxy-4-oxo-1,4-dihydroquinolin-7-yl)-piperazin-1-yl-aminomethylenyl]-rifamycin SV] | 0.008 to 0.06 µg/mL (≈ 0.00738 to 0.0553 µM) | 0.06 to 16 µg/mL (≈ 0.0553 to 14.8 µM) | 0.008 to 0.03 µg/mL (≈ 0.00738 to 0.0277 µM) | 0.008 to 0.125 µg/mL (≈ 0.00738 to 0.115 µM) | 0.008 to 0.1 µg/mL (≈ 0.00738 to 0.0922 µM) | 0.125 to 4 µg/mL (≈ 0.115 to 3.69 µM) | 0.008 to 1 µg/mL (≈ 0.00738 to 0.922 µM) |
| COc1c(N2CCN(C3CCN(/N=C/c4c5c(O)c6c(O)c(C)c7c(c6c4O)C(=O)[C@@](C)(O/C=C/[C@H](OC)[C@@H](C)[C@@H](OC(C)=O)[C@H](C)[C@H](O)[C@H](C)[C@@H](O)[C@@H](C)/C=C/C=C(/C)C(=O)N5)O7)CC3)CC2)c(F)cc2c(=O)c(C(=O)O)cn(C3CC3)c12 [Example 25, 3-{4-[1-(3-Carboxy-1-cyclopropyl-6-fluoro-8-methoxy-4-oxo-1,4-dihydroquinolin-7-yl)-piperazin-4-yl]-piperidin-1-yl-aminomethylenyl}-rifamycin SV] | 0.008 to 0.06 µg/mL (≈ 0.00685 to 0.0514 µM) | 0.06 to 16 µg/mL (≈ 0.0514 to 13.7 µM) | 0.008 to 0.03 µg/mL (≈ 0.00685 to 0.0257 µM) | 0.008 to 0.125 µg/mL (≈ 0.00685 to 0.107 µM) | 0.008 to 0.1 µg/mL (≈ 0.00685 to 0.0857 µM) | 0.125 to 4 µg/mL (≈ 0.107 to 3.43 µM) | 0.008 to 1 µg/mL (≈ 0.00685 to 0.857 µM) |
| COc1c(N2CCC(N3CCN(/N=C/c4c5c(O)c6c(O)c(C)c7c(c6c4O)C(=O)[C@@](C)(O/C=C/[C@H](OC)[C@@H](C)[C@@H](OC(C)=O)[C@H](C)[C@H](O)[C@H](C)[C@@H](O)[C@@H](C)/C=C/C=C(/C)C(=O)N5)O7)CC3)CC2)c(F)cc2c(=O)c(C(=O)O)cn(C3CC3)c12 [Example 27, 3-{4-[1-(3-Carboxy-1-cyclopropyl-6-fluoro-8-methoxy-4-oxo-1,4-dihydroquinolin-7-yl)-piperidin-4-yl]-piperazin-1-yl-aminomethylenyl}-rifamycin SV] | 0.008 to 0.06 µg/mL (≈ 0.00685 to 0.0514 µM) | 0.06 to 16 µg/mL (≈ 0.0514 to 13.7 µM) | 0.008 to 0.03 µg/mL (≈ 0.00685 to 0.0257 µM) | 0.008 to 0.125 µg/mL (≈ 0.00685 to 0.107 µM) | 0.008 to 0.1 µg/mL (≈ 0.00685 to 0.0857 µM) | 0.125 to 4 µg/mL (≈ 0.107 to 3.43 µM) | 0.008 to 1 µg/mL (≈ 0.00685 to 0.857 µM) |
| COc1c(N2CCN(C(=O)C3CCN(/N=C/c4c5c(O)c6c(O)c(C)c7c(c6c4O)C(=O)[C@@](C)(O/C=C/[C@H](OC)[C@@H](C)[C@@H](OC(C)=O)[C@H](C)[C@H](O)[C@H](C)[C@@H](O)[C@@H](C)/C=C/C=C(/C)C(=O)N5)O7)CC3)CC2)c(F)cc2c(=O)c(C(=O)O)cn(C3CC3)c12 [Example 32, 3-{4-[4-(3-Carboxy-1-cyclopropyl-6-fluoro-8-methoxy-4-oxo-1,4-dihydroquinolin-7-yl)-piperazine-1-yl-carbonyl]-piperidin-1-yl-aminomethylenyl}-rifamycin SV] | 0.008 to 0.06 µg/mL (≈ 0.00669 to 0.0502 µM) | 0.06 to 16 µg/mL (≈ 0.0502 to 13.4 µM) | 0.008 to 0.03 µg/mL (≈ 0.00669 to 0.0251 µM) | 0.008 to 0.125 µg/mL (≈ 0.00669 to 0.105 µM) | 0.008 to 0.1 µg/mL (≈ 0.00669 to 0.0837 µM) | 0.125 to 4 µg/mL (≈ 0.105 to 3.35 µM) | 0.008 to 1 µg/mL (≈ 0.00669 to 0.837 µM) |
